Earlier results in patent publication US20040197404A1, “Extended release oral dosage form” (priority 2001, published 2004).

Details: in vivo

NC(=O)c1ccc(F)c2c1C[C@@H](N(C1CCC1)C1CCC1)CO2.O.O=C(O)C(O)C(O)C(=O)O [(R)-3-N,N-dicyclobutylamino-8-fluoro-3,4-dihydro-2H-1-benzopyran-5-carboxamide hydrogen (2R,3R)-tartrate monohydrate]
plasma elimination half-life, t1/2: 1.5 h
